Measured values published in patent US11957671B2, “Benzodioxane modulators of leukotriene A4 hydrolase (LTA4H) for prevention and treatment of aging-associated diseases” (Alkahest, Inc., priority 2021, dated 2024).

What was measured:
[1] = system: aged wild type (WT; C57BL/6) mice; experiment: Y-Maze; type: in vivo, mouse; settings: 10 mg/kg PO daily
Protocol: A large Y-maze test assessed short-term memory of the familiarity of a specific context. Mice were brought to the experimental room for at least 30 min of acclimation to the experimental room conditions (dim lighting) prior to testing. For the initial training trial, the mouse was placed at the end of one arm of a large Y-maze designated “start arm” (arm length: 15 inches). The third arm of the maze was blocked off, allowing the mouse to explore two of the three arms freely (“start arm” and “familiar arm”) for 5 min. Each arm contained spatial cues. Three hours later, the mouse was placed back into the maze in the “start arm,” and allowed to explore all three arms with the third arm unblocked (“novel arm”). Movements in and out of each arm were tracked using automated tracking software (ANY-maze). Testing was performed under dim lighting, and the apparatus was cleaned with 70% ethanol between trials. The time spent and number of entireties into the “novel arm” and “familiar arm” were analyzed, as well as total distance travelled and velocity as measures of general locomotor activity.
Three independent cohorts of aged wild type (WT; C57BL/6) mice between twenty to twenty-two months of age (20-22 mo) were homogenized into two (2) groups by body weight, total distance travelled in the open field test, and average velocity in the open field test. Group 1 was administered vehicle control PO daily. Group 2 was administered 10 mg/kg of the LTA4H inhibitor Compound 1 PO daily. Both groups were dosed for either 10 days or 4 weeks daily. Behavioral assays were run during the last week of dosing and animals were sacrificed at the end of the study for histological and molecular assays.

[2] = system: Transgenic Notch3R169C mice; experiment: CADASIL Mouse Model, Example 10; type: in vivo; settings: 1 mg/kg PO bid for four months
Protocol: Transgenic Notch3^R169C mice are obtained along with transgenic Notch3^WT and/or wild type mice as described previously (Ghosh M, et al., Ann Neurol., 78(6):887-900 (2015); Rajani R M, et al., Acta Neuropathologica Comm., 7(187) (2019); and Joutel A, et al., J. Clin. Invest., 120(2):433-45 (2010), herein incorporated by reference in their entirety). Twenty Notch3R169c mice and 10 littermate control 5-month-old wild type mice are dosed with Vehicle or Compound 1 at 1 mg/kg PO bid for four months. Mice are anesthetized and blood and tissues are collected for further analysis.
Transgenic Notch3^R169C mice treated with Vehicle or Compound as described previously in section A (Experimental Procedures supra) have blood collected via cardiac puncture in syringes pre-filled with Heparin. Brains are collected following saline and Heparin infusion and separated by mid-sagittal slice. One half of the brain is drop fixed in 4% PFA and 24 hours later, the brain is changed into a solution of 15% sucrose. A secondary change to 30% sucrose is performed 48 hours after initial fixation in PFA.
Brains are then sectioned to 50 micrometers in thickness using a vibratome and placed on a slide for immunostaining and stained with PDGFRβ and LECTIN antibodies as described previously (Ghosh supra) to show pericyte coverage. The number of PDGFRβ positive pericytes per square millimeter of selected field area in the cortex is analyzed by randomly selecting four fields in nonadjacent sections at approximately 100 μm intervals.
Albumin and fibrinogen presence is measured as a positive signal in the brain parenchyma. The signals are quantified as described previously (Ghosh supra). Transgenic mice treated with Vehicle has increased albumin and fibrinogen leakiness into the brain parenchyma compared to Vehicle treated wild-type controls.
GFAP and AQP4 markers for astrocytes are measured to determine the presence of astrocyte end-feet. Transgenic mice treated with Vehicle is reduced GFAP and AQP4 compared with Vehicle treated wild-type controls. […] AQP4 and GFAP are markers for astrocyte, which make up an important part of the neurovascular unit and are lost in CADASIL mouse models and human patients.

LTA4H hydrolase activity = LTA4H hydrolase activity (Mus musculus (Mouse), UniProt P24527); experiment: Pharmacodynamic analysis of plasma LTB4 after a single dose; type: in vivo
Protocol: Whole blood was collected by cardiac puncture using heparin as an anti-coagulant. 160 μL of whole blood was collected in duplicate for each mouse and incubated for 15 minutes in 37° C./5% CO2. During this time a 0.1 mM calcimycin stock was made by diluting 10 mM calcimycin (Sigma C7522) formulated in DMSO into PBS. Control solution was made by diluting the same volume of DMSO in PBS. Both solutions were sonicated for 10 minutes in a 37° C. water bath. 40 μL of 0.1 mM calcimycin (stimulated) or control solution (unstimulated) was added to each well of whole blood and incubated at 37° C./5% CO2 for 30 minutes. Whole blood was spun for 10 minutes at 1000×g to separate out plasma. LTB4 levels were detected by running an ELISA on the collected stimulated and unstimulated plasma diluted 1:10 (Enzo Life Sciences, ADI-901-068). The ELISA plates were read on a BMG LABTECH CLARIOstar plate reader at 405 nm.

Notch3R169C mice = experiment: CADASIL transgenic mouse model Notch3R169C, 4 months dosing (Example 24); type: in vivo; settings: 1 mg/kg PO BID 4 months
Protocol: Notch3^R169C mice (5-month-old) were treated PO BID with either vehicle or Compound 1 (1 mg/kg) for 4 months and littermate WT controls were treated with vehicle for 4 months. Prior to sacrifice, syringes were prepped with 7.5 μL of 1000 U/mL heparin. To increase LTB4 plasma levels, whole blood was stimulated with calcimycin prior to generation of plasma. First, 100 μL of 10 mM calcimycin (Sigma #C7522) in DMSO was diluted into 10 mL of PBS and sonicated for 10 minutes at 37° C. In a 96 well polystyrene plate (Corning 354657), 160 μL of mouse whole blood was collected for each animal and incubated for 15 minutes in a 37° C./5% CO2 (Panasonic MCO-230AICUV-PA). Next, 40 μL of the 100 μM calcimycin working solution was added to each well and incubated again for 30 minutes at 37° C./5% CO2. After incubation, the plates were centrifuged for 10 minutes at 4° C. at 1500 rpm. Plasma was diluted 1:10 and analyzed for LTB4 using LTB4 ELISA Kit (Enzo Life Sciences, ADI-901-068) in duplicate following the included kit protocol. The final readings were collected on a BMG LABTECH CLARIOstar plate reader at 405 nm. Brain tissue was dissected for cortex. One third of the cortex was homogenized in RIPA buffer (EMD Millipore 20-188) using an Omni BeadRuptor 24. Lysates were centrifuged for 10 mins at 10,000 g at 4° C. to collect the supernatant. Protein concentration was determined by BCA (Thermo Fisher 23225) and then diluted in PBS to approximately 10 mg/ml. Samples were sent to Eve Technologies for analysis.

Chain of LTA4H hydrolase activity (P24527 whole entry): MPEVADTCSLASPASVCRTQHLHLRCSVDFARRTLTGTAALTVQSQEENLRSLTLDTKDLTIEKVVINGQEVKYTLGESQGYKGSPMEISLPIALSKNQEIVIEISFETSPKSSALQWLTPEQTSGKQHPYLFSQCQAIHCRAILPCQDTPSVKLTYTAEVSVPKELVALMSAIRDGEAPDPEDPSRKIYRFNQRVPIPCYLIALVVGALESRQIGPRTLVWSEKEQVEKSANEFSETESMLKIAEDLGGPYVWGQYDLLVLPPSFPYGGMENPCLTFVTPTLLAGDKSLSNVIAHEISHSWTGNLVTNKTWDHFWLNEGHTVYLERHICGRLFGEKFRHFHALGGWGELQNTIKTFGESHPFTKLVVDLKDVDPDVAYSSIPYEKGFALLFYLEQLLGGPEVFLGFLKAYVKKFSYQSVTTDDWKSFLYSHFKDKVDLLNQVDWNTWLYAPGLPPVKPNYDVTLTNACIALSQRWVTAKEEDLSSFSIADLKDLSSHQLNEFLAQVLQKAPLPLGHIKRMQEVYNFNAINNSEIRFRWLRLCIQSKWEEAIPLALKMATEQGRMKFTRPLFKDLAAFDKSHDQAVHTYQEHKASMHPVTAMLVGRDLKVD

In the case of O=C(O)C1CCN(Cc2ccc([C@H]3COc4ccccc4O3)cc2)CC1 [Example 1, 1-{4-[(2S)-2,3-dihydro-1,4-benzodioxin-2-yl]benzyl}piperidine-4-carboxylic acid], the “entries into the N and F arms during testing” value ([1]; after 12 days of treatment) is reported as “enter the N and F arms equally”, the “percent time spent in the novel (N) or familiar (F) arms during testing” value ([1]; after 12 days of treatment) is reported as “significantly more time in the novel arm” and the “percent time spent in the novel (N) or familiar (F) arms during testing” value ([1]; after 18 days of treatment) is reported as “significantly improved”. For the same compound, the “percentage of entries into the N and F arms” value ([1]; after 18 days of treatment) was “enter the novel arm significantly more than the familiar arm”, the “percentage of entries into the N and F arms” value ([1]; after 26 days of treatment) was “enter the novel arm significantly more than the familiar arm” and the “GFAP and AQP4 signal at vessels in the cortex” value [2] was “increased positive signal at Lectin-positive vessels”. The “additional blood-brain barrier markers in cortices” value [2] was “significant levels of improvement”, the “albumin and fibrinogen in brain parenchyma” value [2] was “reduced albumin and fibrinogen” and the “plasma levels of LTB4” value [2] was “reduction in plasma levels of LTB4”. For the same compound, the “pericyte coverage and number in cortex” value ([2]; versus vehicle-treated transgenic mice) was “increase in pericyte coverage and number”, the “calcimycin stimulated plasma LTB4 levels” value (LTA4H hydrolase activity; single 1 mg/kg oral dose, multiple timepoints, C57BL/6 mice) was “reduction in the pharmacodynamic readout of calcimycin stimulated plasma LTB4 levels” and the “plasma LTB4 levels, dose response” value (LTA4H hydrolase activity; single dose 0.3, 0.1 or 0.03 mg/kg, 6 hours post dosing) was “dose response in the pharmacodynamic readout of plasma LTB4 levels”. For the same compound, the “IL-2 levels in plasma” value (Notch3R169C mice) was “significantly reduced”, the “IL-7 levels in brain cortex lysate” value (Notch3R169C mice) was “significantly reduced” and the “LTB4 levels in stimulated plasma” value (Notch3R169C mice) was “significantly reduced”. For the same compound, the “LTB4 levels in unstimulated plasma” value (Notch3R169C mice) was “no change in LTB4 levels detected between groups”.
